From patent publication US20070027181A1, “Benzylisoquinoline derivative- or bisbenzylisoquinoline derivative-containing psychotropic agent, analgesic and/or antiphlogistic, and health food” (EDUCATION CENTER OF TRADITIONAL, priority 2004, published 2007)

Columns and labels:
mice [1] = assay: acetic acid-induced writhing test; assay type: in vivo, Male ICR mice
Description: (§1) In the following Examples, all extracts and drugs used were dissolved in physiological saline before use for i.p. administration and the dose was 0.1 ml of physiological saline per 10 g of mouse body weight in either case. All extracts and drugs were suspended in physiological saline containing 1% sodium carboxymethylcellulose before use for oral administration and the dose was 0.1 ml of 1% sodium carboxymethylcellulose-containing physiological saline suspension per 10 g of mouse body weight in either case. Male ICR mice (Japan SLC) having a body weight of 25 to 30 g were used in the tests below unless otherwise stated, and were fed in advance at a room temperature of 23±1° C. and a relative humidity of 55±5% in the environment of a cycle of 12-hour-light from 7 a.m. to 7 p.m. and 12-hour-dark from 7 p.m. to 7 a.m. for 3 to 5 days. The mice were allowed to have water and feed freely.
An acetic acid-induced writhing test is a method wherein analgesic action of a compound is determined utilizing this. The number of this writhing is compared between a physiological saline-administered control group and a test drug-administered group, and suppression of the number of writhing by the test drug is investigated thereby assessing its analgesic action.
Seven to ten mice per group were used. Neferine hydrochloride was subcutaneously administered to mice at their back at a dose of 5 mg/kg, 10 mg/kg, 25 mg/kg, 50 mg/kg or 100 mg/kg and, after 15 minutes, a 0.6% by weight solution of acetic acid in water was intraperitoneally administered at 0.1 mL/10 g body weight. The number of writhing was counted every ten minutes for 30 minutes from immediately after acetic acid administration (0 to 10 min, 10 to 20 min, 20 to 30 min). In addition, the total number of writhing for 30 minutes from immediately after acetic acid administration was also obtained. Regarding the resulting measurements, a significant difference test was performed by a Dunnet multiple comparison test method.
According to the same manner as in acetic acid-induced writhing test-1 except that acetic acid was intraperitoneally administered 30 minutes after subcutaneous administration of neferine in the aforementioned acetic acid-induced writhing test-1, an acetic acid-induced writhing test was performed. However, the dose of neferine was only 50 mg/kg.
According to the same manner as in the acetic acid-induced writhing test-1 except that acetic acid was intraperitoneally administered 30 minutes after oral administration of neferine in the aforementioned acetic acid-induced writhing test-1, an acetic acid-induced writhing test was performed. However, five to six mice per group were used. The dose of neferine was 10 mg/kg and 50 mg/kg. Further, aspirin was used as a positive control drug. The dose of aspirin was 50 mg/kg.
(§2) According to the same manner as in acetic acid-induced writhing test-1 except that armepavine was used in place of neferine in the aforementioned acetic acid-induced writhing test-1, an acetic acid-induced writhing test was performed. However, the dose of armepavine was 5 mg/kg and 10 mg/kg.
as §2, with “O-methylarmepavine” for “armepavine”

mice [2] = assay: suppression of the enhancement of ultromotivity by methamphetamine; assay type: in vivo, Male ICR mice; settings: methamphetamine 1 mg/kg 15 minutes later, 60 minutes
Description: as §1, with “The mice were allowed to have water and feed freely.” left out
Fifteen mice were grouped into three groups of five mice, to which 50 mg/kg of neferine hydrochloride (treatment group 3-1), 100 mg/kg of the same (treatment group 3-2), and only physiological saline (negative control group) were administered respectively intraperitoneally. […] After administration of methamphetamine, each of the mice was placed in a transparent polycarbonate cage (22.5 cm×33.8 cm×14.0 cm), where the ultromotivity of the mouse was analyzed for 60 minutes by using a locomotor activity analyzer (NS-AS01, Neuroscience Inc.).

[3] = 5 mg/kg s.c. 15 minutes before acetic acid
[4] = 10 mg/kg oral 30 minutes before acetic acid
[5] = 10 mg/kg s.c. 15 minutes before acetic acid
[6] = 25 mg/kg s.c. 15 minutes before acetic acid
[7] = 50 mg/kg oral 30 minutes before acetic acid
[8] = 50 mg/kg s.c. 15 minutes before acetic acid
[9] = 50 mg/kg s.c. 30 minutes before acetic acid
[10] = 100 mg/kg s.c. 15 minutes before acetic acid

**Q.** `COc1ccc(C[C@@H]2c3cc(Oc4cc(C[C@@H]5c6cc(OC)c(OC)cc6CCN5C)ccc4O)c(OC)cc3CCN2C)cc1` [neferine] was tested. Which “Number of writhing 0-10 min.” value (mice [1]; [3]) did it give?
**A.** 21.8 ± 2.30

**Q.** What about the “Number of writhing 0-30 min.” value (mice [1]; [3]) of the same compound?
**A.** 51.0 ± 5.34

**Q.** And the “Number of writhing 10-20 min.” value (mice [1]; [3])?
**A.** 19.0 ± 2.14

**Q.** And the “Number of writhing 20-30 min.” value (mice [1]; [3])?
**A.** 10.7 ± 2.04

**Q.** What about the “Number of writhing 0-10 min.” value (mice [1]; [4]) of the same compound?
**A.** 7.6 ± 1.63

**Q.** And the “Number of writhing 0-30 min.” value (mice [1]; [4])?
**A.** 23.3 ± 1.52

**Q.** And the “Number of writhing 10-20 min.” value (mice [1]; [4])?
**A.** 9.2 ± 1.35

**Q.** What about the “Number of writhing 20-30 min.” value (mice [1]; [4]) of the same compound?
**A.** 6.5 ± 2.50

**Q.** And the “Number of writhing 0-10 min.” value (mice [1]; [5])?
**A.** 12.1 ± 1.91

**Q.** And the “Number of writhing 0-30 min.” value (mice [1]; [5])?
**A.** 31.6 ± 6.15

**Q.** What about the “Number of writhing 10-20 min.” value (mice [1]; [5]) of the same compound?
**A.** 11.6 ± 2.66

**Q.** And the “Number of writhing 20-30 min.” value (mice [1]; [5])?
**A.** 7.9 ± 3.06

**Q.** And the “Number of writhing 0-10 min.” value (mice [1]; [6])?
**A.** 8.9 ± 2.22

**Q.** And the “Number of writhing 0-30 min.” value (mice [1]; [6])?
**A.** 19.4 ± 3.48

**Q.** And the “Number of writhing 10-20 min.” value (mice [1]; [6])?
**A.** 6.9 ± 1.90

**Q.** What about the “Number of writhing 20-30 min.” value (mice [1]; [6]) of the same compound?
**A.** 3.6 ± 1.19

**Q.** And the “Number of writhing 0-10 min.” value (mice [1]; [7])?
**A.** 2.4 ± 1.94

**Q.** And the “Number of writhing 0-30 min.” value (mice [1]; [7])?
**A.** 8.0 ± 3.08

**Q.** What about the “Number of writhing 10-20 min.” value (mice [1]; [7]) of the same compound?
**A.** 4.0 ± 1.30

**Q.** What about the “Number of writhing 20-30 min.” value (mice [1]; [7]) of the same compound?
**A.** 1.6 ± 0.81

**Q.** What about the “Number of writhing 0-10 min.” value (mice [1]; [8]) of the same compound?
**A.** 5.7 ± 1.38

**Q.** What about the “Number of writhing 0-30 min.” value (mice [1]; [8]) of the same compound?
**A.** 19.7 ± 3.56

**Q.** And the “Number of writhing 10-20 min.” value (mice [1]; [8])?
**A.** 5.7 ± 1.38

**Q.** And the “Number of writhing 20-30 min.” value (mice [1]; [8])?
**A.** 5.3 ± 2.15

**Q.** What about the “Number of writhing 0-10 min.” value (mice [1]; [9]) of the same compound?
**A.** 10.6 ± 2.53

**Q.** And the “Number of writhing 0-30 min.” value (mice [1]; [9])?
**A.** 27.4 ± 3.73

**Q.** What about the “Number of writhing 10-20 min.” value (mice [1]; [9]) of the same compound?
**A.** 10.3 ± 1.90

**Q.** What about the “Number of writhing 20-30 min.” value (mice [1]; [9]) of the same compound?
**A.** 6.6 ± 1.53

**Q.** And the “Number of writhing 0-10 min.” value (mice [1]; [10])?
**A.** 4.0 ± 1.22

**Q.** And the “Number of writhing 0-30 min.” value (mice [1]; [10])?
**A.** 14.9 ± 2.16

**Q.** And the “Number of writhing 10-20 min.” value (mice [1]; [10])?
**A.** 6.7 ± 1.31

**Q.** And the “Number of writhing 20-30 min.” value (mice [1]; [10])?
**A.** 4.2 ± 1.02

**Q.** And the “dose showing significant analgesic action against the negative control group” value (mice [1]; 15 minute-before subcutaneous administration)?
**A.** ≥ 10 mg/kg

**Q.** And the “analgesic action compared with aspirin” value (mice [1]; oral administration 30 minutes before acetic acid)?
**A.** strong analgesic action as compared with aspirin

**Q.** What about the “Ultromotivity (count)” value (mice [2]; 50 mg/kg i.p.) of the same compound?
**A.** 2600 count

**Q.** What about the “Ultromotivity (count)” value (mice [2]; 100 mg/kg i.p.) of the same compound?
**A.** 1800 count
